Measured values reported in patent US6358885B1, “Substituted phenylheterocyclic herbicides” (Mississippi State University, priority 1992, dated 2002).

Tests used:
barley [1] = assay: Test B preemergence/postemergence greenhouse plant response rating 0 to 10; assay type: in vivo, Hordeum vulgare; conditions: for Plant response rating, Barley: 0 to 10 scale
Procedure, shortened: (§1)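 Test chemicals, dissolved in a non-phytotoxic solvent, were applied to soil at planting and, at the same time, over foliage of seedlings at the one to four leaf stage.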

bedstraw [2] = assay: as above; assay type: in vivo, Galium aparine; conditions: for Plant response rating, Bedstraw: 0 to 10 scale
Procedure, shortened: as §1

blackgrass [3] = assay: as above; assay type: in vivo, Alopecurus myosuroides; conditions: for Plant response rating, Blackgrass: 0 to 10 scale
Procedure, shortened: as §1

cheatgrass = assay: as above; assay type: in vivo, Bromus secalinus; conditions: for Plant response rating, Cheatgrass: 0 to 10 scale
Procedure, shortened: as §1

cotton = assay: as above; assay type: in vivo, Gossypium hirsutum; conditions: for Plant response rating, Cotton: 0 to 10 scale
Procedure, shortened: as §1

rape = assay: as above; assay type: in vivo, Brassica napus; conditions: 0 to 10 scale
Procedure, shortened: as §1

rice = assay: as above; assay type: in vivo, Oryza sativa; conditions: 0 to 10 scale
Procedure, shortened: as §1

sorghum [4] = assay: as above; assay type: in vivo, Sorghum bicolor; conditions: 0 to 10 scale
Procedure, shortened: as §1

wheat = assay: as above; assay type: in vivo, Triticum aestivum; conditions: 0 to 10 scale
Procedure, shortened: as §1

barley [5] = assay: Test C preemergence/postemergence greenhouse plant response rating 0 to 100; assay type: in vivo, Hordeum vulgare; conditions: POSTEMERGENCE; for Plant response rating Barley Igri: 0 to 100 scale
Procedure, shortened: (§2)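 Compounds in non-phytotoxic solvent applied preemergence to sandy loam one day after planting, postemergence at the 1–4 leaf stage, or to ~2.5 cm floodwater over silt loam.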

bedstraw [6] = assay: as above; assay type: in vivo, Galium aparine; conditions: POSTEMERGENCE; for Plant response rating, Bedstraw: 0 to 100 scale
Procedure, shortened: as §2

blackgrass [7] = assay: as above; assay type: in vivo, Alopecurus myosuroides; conditions: POSTEMERGENCE; for Plant response rating, Blackgrass: 0 to 100 scale
Procedure, shortened: as §2

pigweed = assay: as above; assay type: in vivo, Amaranthusretroflexus; conditions: POSTEMERGENCE; for Plant response rating Pigweed: 0 to 100 scale
Procedure, shortened: as §2

ryegrass = assay: as above; assay type: in vivo, Lolium multiflorum; conditions: POSTEMERGENCE; for Plant response rating Ryegrass: 0 to 100 scale
Procedure, shortened: as §2

sorghum [8] = assay: as above; assay type: in vivo, Sorghum bicolor; conditions: POSTEMERGENCE; for Plant response rating, Sorghum: 0 to 100 scale
Procedure, shortened: as §2

sugar beet = assay: as above; assay type: in vivo, Beta vulgaris; conditions: POSTEMERGENCE; for Plant response rating, Sugar beet: 0 to 100 scale
Procedure, shortened: as §2

wild buckwheat = assay: as above; assay type: in vivo, Polygonum convolvulus; conditions: POSTEMERGENCE; for Plant response rating, Wild buckwheat: 0 to 100 scale
Procedure, shortened: as §2

duck salad = assay: Test C flood test plant response rating 0 to 100; assay type: in vivo, Heteranthera limosa; conditions: for Plant response rating Duck salad: flood test species listed under POSTEMERGENCE, 0 to 100 scale
Procedure, shortened: as §2

For `COc1cc(-c2nn3c(c2Cl)CCCC3)c(F)cc1Cl` [Compound 29], the “Plant response rating (0 to 10 scale), Barley” value (barley [1]; POSTEMERGENCE, Rate 50 g/ha) was 5, the “Plant response rating, Barley” value (barley [1]; POSTEMERGENCE, Rate 200 g/ha) was 7 and the “Plant response rating, Barley” value (barley [1]; PREEMERGENCE, Rate 50 g/ha) was 0. The “Plant response rating, Barley” value (barley [1]; Rate 200 g/ha, PREEMERGENCE) was 4, the “Plant response rating (0 to 10 scale), Bedstraw” value (bedstraw [2]; POSTEMERGENCE, Rate 50 g/ha) was 7 and the “Plant response rating, Bedstraw” value (bedstraw [2]; POSTEMERGENCE, Rate 200 g/ha) was 10. The “Plant response rating, Bedstraw” value (bedstraw [2]; PREEMERGENCE, Rate 50 g/ha) was 7, the “Plant response rating, Bedstraw” value (bedstraw [2]; Rate 200 g/ha, PREEMERGENCE) was 9 and the “Plant response rating (0 to 10 scale), Blackgrass” value (blackgrass [3]; POSTEMERGENCE, Rate 50 g/ha) was 3. For the same compound, the “Plant response rating, Blackgrass” value (blackgrass [3]; POSTEMERGENCE, Rate 200 g/ha) was 6, the “Plant response rating, Blackgrass” value (blackgrass [3]; PREEMERGENCE, Rate 50 g/ha) was 5 and the “Plant response rating, Blackgrass” value (blackgrass [3]; Rate 200 g/ha, PREEMERGENCE) was 7. For the same compound, the “Plant response rating (0 to 10 scale), Cheatgrass” value (cheatgrass; POSTEMERGENCE, Rate 50 g/ha) was 4, the “Plant response rating, Cheatgrass” value (cheatgrass; POSTEMERGENCE, Rate 200 g/ha) was 8 and the “Plant response rating, Cheatgrass” value (cheatgrass; PREEMERGENCE, Rate 50 g/ha) was 5. For the same compound, the “Plant response rating, Cheatgrass” value (cheatgrass; Rate 200 g/ha, PREEMERGENCE) was 8, the “Plant response rating (0 to 10 scale), Cotton” value (cotton; POSTEMERGENCE, Rate 50 g/ha) was 10 and the “Plant response rating, Cotton” value (cotton; POSTEMERGENCE, Rate 200 g/ha) was 10. The “Plant response rating, Cotton” value (cotton; PREEMERGENCE, Rate 50 g/ha) was 1, the “Plant response rating, Cotton” value (cotton; Rate 200 g/ha, PREEMERGENCE) was 7 and the “Plant response rating, Rape” value (rape; POSTEMERGENCE, Rate 50 g/ha) was 8. The “Plant response rating, Rape” value (rape; PREEMERGENCE, Rate 50 g/ha) was 8, the “Plant response rating, Rape” value (rape; Rate 200 g/ha, POSTEMERGENCE) was 10 and the “Plant response rating, Rape” value (rape; Rate 200 g/ha, PREEMERGENCE) was 10. The “Plant response rating, Rice” value (rice; POSTEMERGENCE, Rate 50 g/ha) was 4, the “Plant response rating, Rice” value (rice; PREEMERGENCE, Rate 50 g/ha) was 0 and the “Plant response rating, Rice” value (rice; Rate 200 g/ha, POSTEMERGENCE) was 7. For the same compound, the “Plant response rating, Rice” value (rice; Rate 200 g/ha, PREEMERGENCE) was 2, the “Plant response rating, Sorghum” value (sorghum [4]; POSTEMERGENCE, Rate 50 g/ha) was 5 and the “Plant response rating, Sorghum” value (sorghum [4]; PREEMERGENCE, Rate 50 g/ha) was 0. For the same compound, the “Plant response rating, Sorghum” value (sorghum [4]; Rate 200 g/ha, POSTEMERGENCE) was 6, the “Plant response rating, Sorghum” value (sorghum [4]; Rate 200 g/ha, PREEMERGENCE) was 1 and the “Plant response rating, Wheat” value (wheat; POSTEMERGENCE, Rate 50 g/ha) was 4. For the same compound, the “Plant response rating, Wheat” value (wheat; PREEMERGENCE, Rate 50 g/ha) was 0, the “Plant response rating, Wheat” value (wheat; Rate 200 g/ha, POSTEMERGENCE) was 6 and the “Plant response rating, Wheat” value (wheat; Rate 200 g/ha, PREEMERGENCE) was 4. For the same compound, the “Plant response rating Barley Igri” value (barley [5]; 62 g/ha) was 60, the “Plant response rating Barley Igri” value (barley [5]; 250 g/ha) was 90 and the “Plant response rating (0 to 100), Barley Igri” value (barley [5]; Rate 4 g/ha) was 20. The “Plant response rating (0 to 100), Barley Igri” value (barley [5]; Rate 16 g/ha) was 40, the “Plant response rating, Bedstraw” value (bedstraw [6]; 62 g/ha) was 100 and the “Plant response rating, Bedstraw” value (bedstraw [6]; 250 g/ha) was 100. For the same compound, the “Plant response rating (0 to 100), Bedstraw” value (bedstraw [6]; Rate 4 g/ha) was 90, the “Plant response rating (0 to 100), Bedstraw” value (bedstraw [6]; Rate 16 g/ha) was 100 and the “Plant response rating, Blackgrass” value (blackgrass [7]; 62 g/ha) was 50. For the same compound, the “Plant response rating, Blackgrass” value (blackgrass [7]; 250 g/ha) was 90, the “Plant response rating (0 to 100), Blackgrass” value (blackgrass [7]; Rate 4 g/ha) was 20 and the “Plant response rating (0 to 100), Blackgrass” value (blackgrass [7]; Rate 16 g/ha) was 30. For the same compound, the “Plant response rating Pigweed” value (pigweed; 62 g/ha) was 100, the “Plant response rating Pigweed” value (pigweed; 250 g/ha) was 100 and the “Plant response rating (0 to 100), Pigweed” value (pigweed; Rate 4 g/ha) was 50. The “Plant response rating (0 to 100), Pigweed” value (pigweed; Rate 16 g/ha) was 100, the “Plant response rating Ryegrass” value (ryegrass; 62 g/ha) was 70 and the “Plant response rating Ryegrass” value (ryegrass; 250 g/ha) was 90. The “Plant response rating (0 to 100), Ryegrass” value (ryegrass; Rate 4 g/ha) was 30, the “Plant response rating (0 to 100), Ryegrass” value (ryegrass; Rate 16 g/ha) was 60 and the “Plant response rating, Sorghum” value (sorghum [8]; 62 g/ha) was 20. For the same compound, the “Plant response rating, Sorghum” value (sorghum [8]; 250 g/ha) was 50, the “Plant response rating (0 to 100), Sorghum” value (sorghum [8]; Rate 4 g/ha) was 0 and the “Plant response rating (0 to 100), Sorghum” value (sorghum [8]; Rate 16 g/ha) was 0. The “Plant response rating, Sugar beet” value (sugar beet; 62 g/ha) was 100, the “Plant response rating, Sugar beet” value (sugar beet; 250 g/ha) was 100 and the “Plant response rating (0 to 100), Sugar beet” value (sugar beet; Rate 16 g/ha) was 90. The “Plant response rating, Wild buckwheat” value (wild buckwheat; 62 g/ha) was 100, the “Plant response rating, Wild buckwheat” value (wild buckwheat; 250 g/ha) was 100 and the “Plant response rating (0 to 100), Wild buckwheat” value (wild buckwheat; Rate 4 g/ha) was 80. For the same compound, the “Plant response rating (0 to 100), Wild buckwheat” value (wild buckwheat; Rate 16 g/ha) was 90, the “Plant response rating (0 to 100), Duck salad” value (duck salad; POSTEMERGENCE section, flood test, Rate 4 g/ha) was 20 and the “Plant response rating (0 to 100), Duck salad” value (duck salad; Rate 16 g/ha, under POSTEMERGENCE head (flood test species)) was 85. For the same compound, the “Plant response rating Duck salad” value (duck salad; 62 g/ha) was 95 and the “Plant response rating Duck salad” value (duck salad; 250 g/ha) was 100.
